Like-named read-outs stand apart in the source and are kept apart here.
How the values were obtained:
[1] = WST-1 cytotoxicity assay, BL-41 (KSHV negative lymphoma); assay type: cell-based; conditions: human; 50% cytotoxic concentration, 72 h, WST-1; read-out: KSHV negative lymphomas CC50, BL-41
Text: (§1) Fig 2 Identification of newly synthesized dual inhibitors with anti-PEL activities. (A) The binding mode of (+)-JQ1 with BRD4^BD1 (PDB: 3MXF). BRD4^BD1 is shown as hot pink cartoon with gray surface. Asn140 in BRD4^BD1 is shown as sticks and colored in following pattern: atom C hot pink, atom N dark blue, and atom O yellow. (+)-JQ1 is shown as sticks and colored in following patten: atom C hot pink, atom N dark blue, atom O yellow, atom S golden, and atom Cl green. The solvent exposed region (SEG) of (+)-JQ1 are indicated with white arrow. (B) The binding modes of SAHA and entinostat with HDAC2 (PDB: 3MAX). HDAC2 is shown as blue cartoon with gray surface. Asp181 and His183 in HDAC2 are shown as sticks and colored in following pattern: atom C blue, atom N dark blue, and atom O yellow. The catalytic zinc ion in the active site of HDAC2 is shown as black sphere. SAHA is shown as sticks and colored in following pattern: atom C green, atom N dark blue, and atom O yellow. Entinostat is shown as sticks and colored in following pattern: atom C hot pink, atom N dark blue, and atom O yellow. The SEG of SAHA or entinostat is indicated with white arrow. Hydrogen bonds (H-bonds) are presented by red dash lines. (C) The HDACs/BRD4 dual inhibitors 002-011 were designed by fusing the key pharmacophores of (+)-JQ1 (pink) and HDAC inhibitors (blue), SAHA or entinostat, via various chemical linkers (green). (D) Anti-PEL activities of the new compounds. Five KSHV positive and two KSHV negative lymphoma cell lines were treated with indicated concentrations of these compounds for 72 h. Then the cytotoxicity was determined using the WST-1 assay. (+)-JQ1, SAHA and entinostat were used for the comparisons as single inhibitors. The CC50 for each compound was calculated using GraphPad Prism 5.0 software. Error bars represent S.D. for 3 independent experiments.
(§2) The cell viability following treatment with compounds was assessed by the WST-1 assay (Roche, Indianapolis, Indiana, USA) according to the manufacturer’s protocol as described previously. The absorbance signal was measured using a microplate reader (Biotek Synergy 2). The 50% cytotoxic concentration (CC50) for each compound was calculated from these dose-response curves using the software GraphPad Prism v5.0. Data were normalized as the fold change compared to the DMSO control.

[2] = WST-1 cytotoxicity assay, BJAB (KSHV negative lymphoma); assay type: cell-based; conditions: human; 50% cytotoxic concentration, 72 h, WST-1; read-out: KSHV negative lymphomas CC50, BJAB
Text: as §1, §2

BJAB.219 = experiment: WST-1 cytotoxicity assay, BJAB.219 (KSHV-infected lymphoma); assay type: cell-based; conditions: 72 h, read-out: KSHV-infected lymphomas CC50, BJAB.219
Text: as §1
BCBL-1 and iSLK.219 cells were kindly provided by Dr. Pinghui Feng (University of Southern California). BL-41, BJAB, BCP-1, BC-1, BC-3, JSC-1, HUVEC cells were purchased from American Type Culture Collection (ATCC), and cultured as recommended by the manufacturer. For making BJAB.219 cells, BJAB cells were infected with rKSHV.219 stock by spinoculation as previously reported by centrifugation at 1500×g for 60 min [31]. Then, puromycin (10 μg/ml) was added into the medium at 72 h post-infection and the medium containing puromycin was replaced twice a week. After 6-week high concentration of puromycin selection, BJAB.219 cells were then cultured in the medium with 0.5 μg/ml puromycin.
The cell viability following treatment with compounds was assessed by the WST-1 assay (Roche, Indianapolis, Indiana, USA) according to the manufacturer’s protocol as described previously. The absorbance signal was measured using a microplate reader (Biotek Synergy 2). […]

[3] = Pharmacokinetics in plasma of mice (LC-MS/MS); conditions: male, NOD/SCID, mouse, in vivo
Protocol: The i.p. and p.o. dose were formulated with DMSO/PEG300/Tween80/saline (5/30/10/55). Samples were obtained at 0.25, 0.5, 1, 2, 4, and 8 hours post dosing via tail snipping, transferred into plastic microcentrifuge tubes containing 4 μL of K2-EDTA (0.5 M) as anti-coagulant and placed on wet ice until centrifugation. Harvested blood samples were centrifuged shortly after collection at 4,000 g 4°C for 10 minutes. After centrifugation, the amount of compounds in the plasma was determined using HPLC-coupled tandem mass spectrometry (LC-MS/MS). Values are calculated from arithmetic mean plasma concentrations (n = 3 mice per condition). AUClast and t1/2 were determined using GraphPad Prism v5.0. The bioavailability F (%) = AUClast for p.o. / AUClast for i.p. × 100 [50].

HDACs = HDACs signaling by Western blot (H3K9Ac, H4K9Ac, Acetyl-tubulin); assay type: cell-based
KSHV [4] = experiment: Viral DNA levels in PEL cells by qPCR; assay type: cell-based
BCBL-1 cells = experiment: PEL xenograft model (BCBL-1 cells i.p.)
Protocol: (A) Plasma concentrations of (+)-JQ1, SAHA, or 009P1 after a single administration of 50 mg per kg body (i.p. injection) were presented as mean ± SD (n = 3 mice per time point). (B-E) NOD/SCID mice were injected i.p. with BCBL-1 cells. 72 h later, the compounds or vehicle were administered i.p. as described in the Methods, and weights were recorded weekly. At the end of the treatment period, the splenic tissues were collected from the vehicle or compound treated mice, compared and processed with the H&E and IHC staining. (F) Plasma concentrations of 009P1 after a single administration of 50 mg per kg body (oral gavage) were presented as mean ± SD (n = 3 mice per time point). (G-I) NOD/SCID mice were injected i.p. with BCBL-1 cells. 72 h later, the compounds or vehicle were administered orally as described in the Methods, and weights were recorded weekly.
In all NOD/SCID mice, 6–8-week-old, male (Jackson Laboratory, Ellsworth, Maine, USA), 1 × 10^7 BCBL-1 cells in 200 μL RMPI-1640 without FBS were injected intraperitoneally and then mice were randomized into treatment groups of 6 mice as described previously. The tested compounds or vehicle was administered initially at 72 h after BCBL-1 injections, and continued once daily, 2 days per week for 3 weeks. Weights were recorded weekly as a surrogate measure of tumor progression. At the end of experiment, the spleens of mice were excised for immunoblots and immunohistochemical analyses.
Formalin-fixed, paraffin-embedded tissues were microtome-sectioned to a thickness of 4 μm and placed on electromagnetically charged slides. Immunohistochemistry was performed as described previously, and the c-Myc and H3K9Ac antibodies were purchased from Abcam. Images were collected using an Olympus BX61 microscope equipped with a high resolution DP72 camera and CellSense image capture software.

[5] = Toxicity study, oral administration at 100 mg/kg
KSHV [6] = assay type: cell-based
[7] = ip, mice, single i.p. 50 mg/kg, plasma, read-out: AUClast
[8] = ip, mice, single i.p. 50 mg/kg, plasma, read-out: Cmax
[9] = ip, mice, single i.p. 50 mg/kg, plasma, read-out: Tmax
[10] = ip, mice, single i.p. 50 mg/kg, plasma, read-out: t1/2 (converted)

SMILES: O=C(CCCCCCC(=O)Nc1ccccc1)NO [SAHA, suberoylanilide hydroxamic acid, reference compound]
- CC50 at 72 h [1]: 3940 nM
- CC50 at 72 h [2]: 3340 nM
- CC50 (BJAB.219; 50% cytotoxic concentration, WST-1): 560 nM
- AUC(0-t) [3, 7]: 12000 ng·h/mL
- Cmax [3, 8]: 16600 ng/mL
- Tmax [3, 9]: 0.25 h
- half-life [3, 10]: 0.72 h
- H3K9Ac, H4K9Ac and Acetyl-tubulin protein levels (HDACs): upregulated
- Viral DNA levels (KSHV [4]): obviously increased

SMILES: Cc1sc2c(c1C)C(c1ccc(Cl)cc1)=N[C@@H](CC(=O)OC(C)(C)C)c1nnc(C)n1-2 [(+)-JQ1, reference compound]
- CC50 at 72 h [1]: 680 nM
- CC50 at 72 h [2]: 1110 nM
- CC50 (BJAB.219): ~120 nM
- AUC(0-t) [3, 7]: 78000 ng·h/mL
- Cmax [3, 8]: 28700 ng/mL
- Tmax [3, 9]: 1 h
- half-life [3, 10]: 2.27 h
- Tumor infiltration into the spleen (H&E) (BCBL-1 cells; i.p., 50 mg/kg): slightly reduced
- Visible toxicity in mice (abnormal weight loss) (BCBL-1 cells; i.p., 50 mg/kg): visible toxicity
- Toxicity in the mice [5]: severe toxicity

SMILES: Cc1sc2c(c1C)C(c1ccc(Cl)cc1)=N[C@@H](CC(=O)O[C@H](C)c1ccc(C(=O)Nc3ccccc3N)cc1)c1nnc(C)n1-2 [009P1, (R)-1-(4-((2-aminophenyl)carbamoyl)phenyl)ethyl 2-((S)-4-(4-chlorophenyl)-2,3,9-trimethyl-6H-thieno[3,2-f][1,2,4]triazolo[4,3-a][1,4]diazepin-6-yl)acetate]
- bioavailability ([3]; 50 mg/kg): 24.5%
- AUC(0-t) ([3]; ip, 50 mg/kg): 159000 ng·h/mL
- Cmax ([3]; ip, 50 mg/kg): 74600 ng/mL
- Tmax ([3]; ip, 50 mg/kg): 1 h
- half-life ([3]; ip, 50 mg/kg): 1.66 h
- AUC(0-t) ([3]; po, 50 mg/kg): 39000 ng·h/mL
- Cmax ([3]; po, 50 mg/kg): 11500 ng/mL
- Tmax ([3]; po, 50 mg/kg): 0.5 h
- half-life ([3]; po, 50 mg/kg): 1.12 h
- PEL tumor progression (ascites formation, spleen enlargement) (BCBL-1 cells; i.p., 20 mg/kg): dramatically suppressed PEL tumor progression
- Tumor infiltration into the spleen (H&E) (BCBL-1 cells; i.p., 20 mg/kg): only diffuse small tumor nodules
- Visible toxicity in mice (abnormal weight loss) (BCBL-1 cells; i.p., 20 mg/kg): not observed
- Tumor burden in mice (ascites formation, spleen enlargement) (BCBL-1 cells; oral administration, 20 mg/kg): effectively repressed tumor burden
- H3K9Ac, H4K9Ac and Acetyl-tubulin protein levels (HDACs; BCBL-1 cells, 48 h, Western blot): increased
- Expression of viral genes (LANA, RTA, ORF26) (KSHV [6]): significantly increased
- Viral DNA levels (KSHV [4]): slightly increased
